Data on one molecule can be found in PMC6915869, “Immunosuppressive effects of a novel potassium channel toxin Ktx-Sp2 from Scorpiops Pocoki” (Cell & Bioscience, 2019).

In test [1] the test system is Ca^2+ influx in Jurkat T cells. Description: Live cell Ca^2+ imaging (Fura-2) in Jurkat T cells. Conditions: for inhibition of Ca^2+ influx / free calcium concentration (in words): 10 μM Ktx-Sp2, 3 min pre-treatment, 10 μM CPA, then 2 mM Ca^2+. The class given is cell-based, human. On the procedure: Jurkat T cells were loaded with 4 μM Fura-2 AM (Life Technologies) for 60 min at 37 °C. Cells were then washed 3 times and incubated in Hank’s Balanced Salt Solution (HBSS) for 30 min at room temperature before use. Fluorescence at 340 nm and 380 nm excitation wavelengths was recorded on an inverted Nikon Ti-E microscope equipped with 340, 360 and 380 nm excitation filter wheels using NIS-Elements imaging software (Nikon Instruments Inc., Melville, NY, USA). Fura-2 ratios (F340/F380) reflect changes in [Ca^2+]i upon stimulation. Data were obtained from 100 to 250 cells in time-lapse images from each coverslip.
To test this hypothesis we performed live cell Ca^2+ imaging using the Ca^2+ indicator dye Fura-2 to determine the effect of Ktx-Sp2 on [Ca^2+]i in the presence of intracellular Ca^2+ store depletion by cyclopiazonic acid (CPA), an inhibitor of the sarcoplasmic reticulum Ca^2+-ATPase. […] When 2 mM Ca^2+ was added to the Ca^2+-free HBSS, we observed a large Ca^2+ influx into the cells. […] At 10 μM, Ktx-Sp2 decreased the F340/F380 ratio from 0.14 ± 0.02 to 0.05 ± 0.01 (n = 278) (Fig. 5b).

In test [2] the test system is mNav1.5. As to the kind of experiment: Whole-cell patch-clamp, exogenous Nav1.5 in HEK293T cells. The class given is cell-based. Particulars: 1 μM, +10 mV 100 ms pulse from -60 mV every 10 s. The protocol:
(§1) Mouse spinal columns were removed and placed in ice cold HBSS, then laminectomies were performed and bilateral DRG were dissected out. After removal of connective tissues, DRG were transferred to a 1 ml Ca^2+/Mg^2+-free HBSS containing 2 μl saturated NaHCO3, 0.35 mg L-cysteine and 20 U papain (Worthington, Lakewood, NJ, USA), and incubated at 37 °C for 10 min. The suspension of DRG was centrifuged, the supernatant was removed, 1 ml Ca^2+/Mg^2+-free HBSS containing 4 mg collagenase type II and 1.25 mg dispase type II (Worthington) was added and incubated at 37 °C for 10 min. After digestion, neurons were pelleted, suspended in neurobasal medium containing 2% B-27 supplement, 1% L-glutamine, 100 U/ml penicillin plus 100 μg/ml streptomycin, and 50 ng/ml nerve growth factor, plated on a 12 mm coverslip coated with poly-L-lysine (10 μg/ml) and cultured under a humidified atmosphere of 5% CO2/95% air at 37 °C for 18–24 h before use. Jurkat E6-1 T cells (ATCC TIB152) and HEK293T cells (ATCC ACS4500) were maintained in RPMI medium 1640 (Invitrogen, Carlsbad, CA, USA) and Dulbecco’s modified Eagle’s medium (DMEM) (Life Technologies,GrandIsland, NY, USA), supplemented with 10% fetal bovine serum (Life Technologies), 100 units/ml penicillin, 100 μg/ml streptomycin, respectively. Cells were cultured in a humidified incubator at 37 °C with 5% CO2. […]
For orientation: Patch clamp records ionic current or voltage across a cell membrane.

The target of test [3] is T1, mKv1.2 (Mus musculus, UniProt P63141).
T1 construct: expressed in transfected cells; host or cells: HEK293T, vector pIRES2-EGFP (bicistronic, EGFP not fused)
T1 sequence (P63141 whole entry, the tested form may be a part): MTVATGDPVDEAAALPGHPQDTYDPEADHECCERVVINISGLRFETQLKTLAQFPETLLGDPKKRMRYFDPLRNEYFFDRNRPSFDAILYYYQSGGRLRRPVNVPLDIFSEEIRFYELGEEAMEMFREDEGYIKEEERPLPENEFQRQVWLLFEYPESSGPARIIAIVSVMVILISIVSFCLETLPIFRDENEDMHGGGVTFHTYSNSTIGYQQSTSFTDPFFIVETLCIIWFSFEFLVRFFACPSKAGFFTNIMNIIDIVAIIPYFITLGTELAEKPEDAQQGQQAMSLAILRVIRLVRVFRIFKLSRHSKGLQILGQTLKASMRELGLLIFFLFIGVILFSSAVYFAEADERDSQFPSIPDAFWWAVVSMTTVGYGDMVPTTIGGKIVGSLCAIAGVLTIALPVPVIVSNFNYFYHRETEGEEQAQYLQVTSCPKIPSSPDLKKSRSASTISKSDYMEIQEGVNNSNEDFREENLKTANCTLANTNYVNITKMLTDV
Description: Whole-cell patch-clamp, exogenous Kv1.2 in HEK293T cells. Type of test: cell-based. On the procedure: Mouse spinal columns were removed and placed in ice cold HBSS, then laminectomies were performed and bilateral DRG were dissected out. After removal of connective tissues, DRG were transferred to a 1 ml Ca^2+/Mg^2+-free HBSS containing 2 μl saturated NaHCO3, 0.35 mg L-cysteine and 20 U papain (Worthington, Lakewood, NJ, USA), and incubated at 37 °C for 10 min. The suspension of DRG was centrifuged, the supernatant was removed, 1 ml Ca^2+/Mg^2+-free HBSS containing 4 mg collagenase type II and 1.25 mg dispase type II (Worthington) was added and incubated at 37 °C for 10 min. After digestion, neurons were pelleted, suspended in neurobasal medium containing 2% B-27 supplement, 1% L-glutamine, 100 U/ml penicillin plus 100 μg/ml streptomycin, and 50 ng/ml nerve growth factor, plated on a 12 mm coverslip coated with poly-L-lysine (10 μg/ml) and cultured under a humidified atmosphere of 5% CO2/95% air at 37 °C for 18–24 h before use. Jurkat E6-1 T cells (ATCC TIB152) and HEK293T cells (ATCC ACS4500) were maintained in RPMI medium 1640 (Invitrogen, Carlsbad, CA, USA) and Dulbecco’s modified Eagle’s medium (DMEM) (Life Technologies,GrandIsland, NY, USA), supplemented with 10% fetal bovine serum (Life Technologies), 100 units/ml penicillin, 100 μg/ml streptomycin, respectively. Cells were cultured in a humidified incubator at 37 °C with 5% CO2. The cDNAs encoding mKv1.1, mKv1.2, mKv1.3, mNav1.4, mNav1.5 and mNav1.7 were subcloned into the XhoI/BamHI sites of a bicistronic vector, pIRES2-EGFP (Clontech, USA), then transiently transfected into HEK293-T cells using Lipofectamine 2000 (Invitrogen) for electrophysiological experiments.
Whole-cell patch-clamp recordings were performed using an EPC 9 amplifier (HEKA Elektronik, Lambrecht/Pfalz, Germany) at room temperature (22–24 °C). Pipettes pulled from borosilicate glass (BF 150-86-10; Sutter Instrument Company, Novato, CA, USA) had resistances of 2–4 MΩ when filled with the internal solution. The internal pipette solution for recording Kv currents contained: KCl 140 mM, MgCl2 1 mM, EGTA 1 mM, Na2ATP 3 mM, HEPES 10 mM (pH 7.3 with KOH); for recording Na currents contained: CsCl 100 mM, CsF 40 mM, MgCl2 2 mM, HEPES 10 mM, EGTA 10 mM, D-Glucose 10 mM, Na2ATP 3 mM (pH 7.3 with CsOH). The external solution for recording Kv currents contained: KCl 5 mM, NaCl 140 mM, HEPES 10 mM, CaCl2 2 mM, MgCl2 1 mM, D-Glucose 10 mM (pH 7.4 with NaOH); for recording Na currents contained: NaCl 132 mM, KCl 5.4 mM, CaCl2 1.8 mM, MgCl2 0.8 mM, HEPES 10 mM, D-Glucose 5 mM (pH 7.4 with NaOH). Kv currents were elicited by + 50 mV, 400 ms depolarizing pulse from the holding potential of − 60 mV every 20 s, and Na currents were elicited by + 10 mV, 100 ms depolarizing pulse from the holding potential of − 60 mV every 10 s. […]

The subject of test [4] is mNav1.4. As to the kind of experiment: Whole-cell patch-clamp, exogenous Nav1.4 in HEK293T cells. Type of test: cell-based. Conditions: 1 μM, +10 mV 100 ms pulse from -60 mV every 10 s. The protocol:
as §1

Test [5] concerns the target T2, mKv1.3 (Mus musculus, UniProt P16390).
T2 construct: expressed in transfected cells; host or cells: HEK293T, vector pIRES2-EGFP (bicistronic, EGFP not fused)
Description: Whole-cell patch-clamp, exogenous Kv1.3 in HEK293T cells. Type of test: cell-based. The protocol:
as §1

The structures appear in SMILES notation. “Also recorded” adds a separate entry of the source. Bridge positions count the residues as written; N and C are the ends. Peptide text beside a SMILES is read from it.

T2 sequence (P16390 whole entry, the tested form may be a part): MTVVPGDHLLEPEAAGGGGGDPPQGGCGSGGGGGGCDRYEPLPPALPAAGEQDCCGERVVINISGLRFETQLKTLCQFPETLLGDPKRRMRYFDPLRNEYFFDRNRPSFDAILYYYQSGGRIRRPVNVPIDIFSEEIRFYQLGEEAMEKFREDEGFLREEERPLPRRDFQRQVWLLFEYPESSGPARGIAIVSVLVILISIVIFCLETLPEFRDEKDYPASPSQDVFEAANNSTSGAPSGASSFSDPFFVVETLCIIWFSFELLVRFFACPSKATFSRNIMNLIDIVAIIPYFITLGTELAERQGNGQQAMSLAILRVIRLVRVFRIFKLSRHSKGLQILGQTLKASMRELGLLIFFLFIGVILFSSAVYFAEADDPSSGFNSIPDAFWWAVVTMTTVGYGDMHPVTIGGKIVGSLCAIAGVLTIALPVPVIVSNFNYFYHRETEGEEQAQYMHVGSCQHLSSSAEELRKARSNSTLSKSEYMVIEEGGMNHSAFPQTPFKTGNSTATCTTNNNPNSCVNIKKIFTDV

As for `CSCC[C@@H]1NC(=O)[C@@H]2CSSC[C@H](NC(=O)[C@H](CCCCN)NC(=O)[C@H](C)NC(=O)CNC(=O)[C@H](Cc3c[nH]cn3)NC(=O)[C@H](CC(C)C)NC(=O)[C@@H]3CCCN3C(=O)[C@@H](N)CO)C(=O)N[C@@H](CO)C(=O)N[C@@H](CO)C(=O)N[C@@H](CO)C(=O)N[C@@H](CC(N)=O)C(=O)N[C@@H](CCC(N)=O)C(=O)N[C@H]3CSSC[C@H](NC(=O)[C@H](CCCNC(=N)N)NC(=O)CNC(=O)[C@H](CC(N)=O)NC1=O)C(=O)N[C@@H](CCCNC(=N)N)C(=O)N[C@H](C(=O)N[C@@H](Cc1ccc(O)cc1)C(=O)NCC(=O)O)CSSC[C@H](NC(=O)[C@@H]1CCCN1C(=O)[C@H](CCCNC(=N)N)NC(=O)[C@H]([C@@H](C)O)NC3=O)C(=O)N[C@@H](CCCNC(=N)N)C(=O)N[C@@H](Cc1ccc(O)cc1)C(=O)NCC(=O)NCC(=O)NCC(=O)N[C@@H]([C@@H](C)O)C(=O)N[C@@H](Cc1c[nH]cn1)C(=O)NCC(=O)N[C@@H](CCCCN)C(=O)N2` [Ktx-Sp2] (H-SPLHGAKCSSSNQCTRPCRYGGGTHGKCMNGRCRCYG-OH; disulfide 8-28, 14-33, 18-35 (inferred); N-terminus and C-terminus assumed), the “inhibition of Ca^2+ influx / free calcium concentration (in words)” value in test [1] was “significantly reduce the free calcium concentration in Jurkat T cells; also recorded: obvious inhibition of Ca^2+ influx”; in test [1] (listed as Ktx-sp2), “effectively reduce the concentration of free Ca^2+ in Jurkat T cells”. Further, the “F340/F380 ratio (net change induced by 2 mM extracellular Ca^2+)” value in test [1] (10 μM Ktx-Sp2, pre-treatment 3 min, store depletion by 10 μM CPA, decreased from 0.14 ± 0.02 without peptide, n = 278, ****P ≤ 0.0001) is given as 0.05 ± 0.01. For the same molecule, in test [2], the “effect on Nav1.5” value was “almost had no effect”. The concentration for half-maximal inhibition (IC50) in test [3] (+50 mV 400 ms pulse from -60 mV every 20 s, room temperature (22–24 °C), mean ± SEM) was 56.9 ± 2.32 nM; in test [5] (+50 mV 400 ms pulse from -60 mV every 20 s, room temperature (22–24 °C), mean ± SEM, n = 8, read-out: IC50 for mKv1.3-mediated currents) it was 14.7 ± 1.98 nM. Further, in test [3] (Discussion section), the “blocking activity on Kv1.3 relative to Kv1.2 (Discussion)” value is on record as 4 times. Moreover, the “blocking activity on Kv1.2 channel (rounded, Discussion)” value in test [3] (electrophysiology) is “about 57 nM”. For the same molecule, in test [3] (exogenous channel), the “blocking of Kv1.2 (in words)” value is “effectively block; also recorded: high blocking activity”. The “effect on Nav1.4” value in test [4] is recorded as “almost had no effect”. For the same molecule, the “blocking of Kv1.3 (in words)” value in test [5] (exogenous channel) is on record as “the blocking activity for Kv1.3 was relatively high; also recorded: the blocking activity on Kv1.3 channel is the strongest”.

As usually defined, the IC50 is the concentration that gives 50% inhibition.
